# Measurements published in ChEMBL document CHEMBL1649524, “Resistance selection studies comparing the activity of razupenem (PTZ601) to vancomycin and linezolid against eight methicillin-resistant and two methicillin-susceptible Staphylococcus aureus strains” (2009).
# Assays:
# Format in all cases: functional
# Staphylococcus aureus [1] = experiment: Antimicrobial activity against heterogeneous vancomycin-intermediate Staphylococcus aureus 873 measured on day 40 by macrodilution method
# Staphylococcus aureus [2] = experiment: Antimicrobial activity against methicillin-susceptible Staphylococcus aureus 543 measured after 10 antibiotic-free subculturing by macrodilution method
# Staphylococcus aureus [3] = experiment: Antimicrobial activity against heterogeneous vancomycin-intermediate Staphylococcus aureus 168 measured on day 40 by macrodilution method
# Staphylococcus aureus [4] = experiment: Antimicrobial activity against methicillin-susceptible Staphylococcus aureus 540 measured on day 20 by macrodilution method; conditions: Staphylococcus aureus, 540, 480 h
# Staphylococcus aureus [5] = experiment: Antimicrobial activity against methicillin-susceptible Staphylococcus aureus 543 measured on day 50 by macrodilution method
# Staphylococcus aureus [6] = experiment: Antimicrobial activity against heterogeneous vancomycin-intermediate Staphylococcus aureus 168 measured on day 45 by macrodilution method
# Staphylococcus aureus [7] = experiment: Antimicrobial activity against vancomycin-intermediate Staphylococcus aureus 1287 measured on day 45 by macrodilution method
# Staphylococcus aureus [8] = experiment: Antimicrobial activity against heterogeneous vancomycin-intermediate Staphylococcus aureus 873 measured on day 45 by macrodilution method
# Staphylococcus aureus [9] = experiment: Antimicrobial activity against heterogeneous vancomycin-intermediate Staphylococcus aureus 873 measured on day 20 by macrodilution method; conditions: Staphylococcus aureus, 873, 480 h
# Staphylococcus aureus [10] = experiment: Antimicrobial activity against methicillin-resistant Staphylococcus aureus 525 measured on day 30 by macrodilution method
# Staphylococcus aureus [11] = experiment: Antimicrobial activity against methicillin-resistant Staphylococcus aureus 547 measured on day 5 by macrodilution method; conditions: Staphylococcus aureus, 547, 120 h
# Staphylococcus aureus [12] = experiment: Antimicrobial activity against vancomycin-resistant Staphylococcus aureus 509 measured on day 25 by macrodilution method; conditions: Staphylococcus aureus, 509, 600 h
# Staphylococcus aureus [13] = experiment: Antimicrobial activity against methicillin-resistant Staphylococcus aureus 547 measured on day 25 by macrodilution method; conditions: Staphylococcus aureus, 547, 600 h
# Staphylococcus aureus [14] = experiment: Antimicrobial activity against vancomycin-intermediate Staphylococcus aureus 555 measured on day 25 by macrodilution method; conditions: Staphylococcus aureus, 555, 600 h
# Staphylococcus aureus [15] = experiment: Antimicrobial activity against vancomycin-resistant Staphylococcus aureus 509 measured on day 15 by macrodilution method; conditions: Staphylococcus aureus, 509, 360 h
# Staphylococcus aureus [16] = experiment: Antimicrobial activity against heterogeneous vancomycin-intermediate Staphylococcus aureus 873 measured on day 15 by macrodilution method; conditions: Staphylococcus aureus, 873, 360 h
# Staphylococcus aureus [17] = experiment: Antimicrobial activity against heterogeneous vancomycin-intermediate Staphylococcus aureus 168 measured on day 30 by macrodilution method
# Staphylococcus aureus [18] = experiment: Antimicrobial activity against vancomycin-intermediate Staphylococcus aureus 555 measured on day 5 by macrodilution method; conditions: Staphylococcus aureus, 555, 120 h
# Staphylococcus aureus [19] = experiment: Antimicrobial activity against methicillin-susceptible Staphylococcus aureus 540 measured on day 5 by macrodilution method; conditions: Staphylococcus aureus, 540, 120 h
# Staphylococcus aureus [20] = experiment: Antimicrobial activity against heterogeneous vancomycin-intermediate Staphylococcus aureus 168 after 50 passages by macrodilution method
# Staphylococcus aureus [21] = experiment: Antimicrobial activity against heterogeneous vancomycin-intermediate Staphylococcus aureus 168 measured on day 50 by macrodilution method
# Staphylococcus aureus [22] = experiment: Antimicrobial activity against vancomycin-intermediate Staphylococcus aureus 1287 measured on day 50 by macrodilution method
# Staphylococcus aureus [23] = experiment: Antimicrobial activity against methicillin-resistant Staphylococcus aureus 547 measured on day 30 by macrodilution method
# Staphylococcus aureus [24] = experiment: Antimicrobial activity against methicillin-resistant Staphylococcus aureus 525 measured on day 15 by macrodilution method; conditions: Staphylococcus aureus, 525, 360 h
# Staphylococcus aureus [25] = experiment: Antimicrobial activity against heterogeneous vancomycin-intermediate Staphylococcus aureus 168 measured on day 35 by macrodilution method
# Staphylococcus aureus [26] = experiment: Antimicrobial activity against heterogeneous vancomycin-intermediate Staphylococcus aureus 873 by macrodilution method
# Staphylococcus aureus [27] = experiment: Antimicrobial activity against heterogeneous vancomycin-intermediate Staphylococcus aureus 873 measured on day 25 by macrodilution method; conditions: Staphylococcus aureus, 873, 600 h
# Staphylococcus aureus [28] = experiment: Antimicrobial activity against vancomycin-resistant Staphylococcus aureus 510 after 50 passages by macrodilution method
# Staphylococcus aureus [29] = experiment: Antimicrobial activity against vancomycin-intermediate Staphylococcus aureus 1287 measured on day 15 by macrodilution method; conditions: Staphylococcus aureus, 1287, 360 h
# Staphylococcus aureus [30] = experiment: Antimicrobial activity against vancomycin-resistant Staphylococcus aureus 510 measured on day 35 by macrodilution method
# Staphylococcus aureus [31] = experiment: Antimicrobial activity against methicillin-resistant Staphylococcus aureus 525 measured on day 40 by macrodilution method
# Staphylococcus aureus [32] = experiment: Antimicrobial activity against heterogeneous vancomycin-intermediate Staphylococcus aureus 873 measured on day 30 by macrodilution method
# Staphylococcus aureus [33] = experiment: Antimicrobial activity against methicillin-resistant Staphylococcus aureus 525 measured on day 50 by macrodilution method
# Staphylococcus aureus [34] = experiment: Antimicrobial activity against methicillin-resistant Staphylococcus aureus 525 measured on day 20 by macrodilution method; conditions: Staphylococcus aureus, 525, 480 h
# Staphylococcus aureus [35] = experiment: Antimicrobial activity against heterogeneous vancomycin-intermediate Staphylococcus aureus 873 measured on day 35 by macrodilution method
# Staphylococcus aureus [36] = experiment: Antimicrobial activity against methicillin-susceptible Staphylococcus aureus 540 measured on day 15 by macrodilution method; conditions: Staphylococcus aureus, 540, 360 h
# Staphylococcus aureus [37] = experiment: Antimicrobial activity against vancomycin-intermediate Staphylococcus aureus 555 measured after 10 antibiotic-free subculturing by macrodilution method
# Staphylococcus aureus [38] = experiment: Antimicrobial activity against methicillin-resistant Staphylococcus aureus 547 measured on day 10 by macrodilution method; conditions: Staphylococcus aureus, 547, 240 h
# Staphylococcus aureus [39] = experiment: Antimicrobial activity against methicillin-resistant Staphylococcus aureus 525 after 28 passages by macrodilution method
# Staphylococcus aureus [40] = experiment: Antimicrobial activity against vancomycin-resistant Staphylococcus aureus 509 measured on day 35 by macrodilution method
# Staphylococcus aureus [41] = experiment: Antimicrobial activity against heterogeneous vancomycin-intermediate Staphylococcus aureus 168 measured on day 5 by macrodilution method; conditions: Staphylococcus aureus, 168, 120 h
# Staphylococcus aureus [42] = experiment: Antimicrobial activity against methicillin-susceptible Staphylococcus aureus 543 measured on day 40 by macrodilution method
# Staphylococcus aureus [43] = experiment: Antimicrobial activity against heterogeneous vancomycin-intermediate Staphylococcus aureus 168 measured on day 20 by macrodilution method; conditions: Staphylococcus aureus, 168, 480 h
# Staphylococcus aureus [44] = experiment: Antimicrobial activity against methicillin-susceptible Staphylococcus aureus 540 measured after 10 antibiotic-free subculturing by macrodilution method
# Staphylococcus aureus [45] = experiment: Antimicrobial activity against vancomycin-intermediate Staphylococcus aureus 1287 measured on day 40 by macrodilution method
# Staphylococcus aureus [46] = experiment: Antimicrobial activity against vancomycin-resistant Staphylococcus aureus 509 measured on day 45 by macrodilution method
# Staphylococcus aureus [47] = experiment: Antimicrobial activity against methicillin-susceptible Staphylococcus aureus 543 measured on day 30 by macrodilution method
# Staphylococcus aureus [48] = experiment: Antimicrobial activity against methicillin-resistant Staphylococcus aureus 525 measured on day 35 by macrodilution method
# Staphylococcus aureus [49] = experiment: Antimicrobial activity against methicillin-resistant Staphylococcus aureus 547 after 23 passages by macrodilution method
# Staphylococcus aureus [50] = experiment: Antimicrobial activity against heterogeneous vancomycin-intermediate Staphylococcus aureus 168 measured on day 25 by macrodilution method; conditions: Staphylococcus aureus, 168, 600 h
smiles,measurement,setting,value
C[C@H]1C=C(c2csc(SC3=C(C(=O)O)N4C(=O)[C@H]([C@@H](C)O)[C@H]4[C@H]3C)n2)CN1 [RAZUPENEM],MIC,Staphylococcus aureus [1],16 µg/mL
same,MIC,Staphylococcus aureus [2],0.016 µg/mL
same,MIC,Staphylococcus aureus [3],8 µg/mL
same,MIC,Staphylococcus aureus [4],0.03 µg/mL
same,MIC,Staphylococcus aureus [5],0.06 µg/mL
same,MIC,Staphylococcus aureus [6],8 µg/mL
same,MIC,Staphylococcus aureus [7],2 µg/mL
same,MIC,Staphylococcus aureus [8],16 µg/mL
same,MIC,Staphylococcus aureus [9],4 µg/mL
same,MIC,Staphylococcus aureus [10],8 µg/mL
same,MIC,Staphylococcus aureus [11],0.5 µg/mL
same,MIC,Staphylococcus aureus [12],4 µg/mL
same,MIC,Staphylococcus aureus [13],4 µg/mL
same,MIC,Staphylococcus aureus [14],2 µg/mL
same,MIC,Staphylococcus aureus [15],2 µg/mL
same,MIC,Staphylococcus aureus [16],2 µg/mL
same,MIC,Staphylococcus aureus [17],8 µg/mL
same,MIC,Staphylococcus aureus [18],1 µg/mL
same,MIC,Staphylococcus aureus [19],0.016 µg/mL
same,MIC,Staphylococcus aureus [20],8 µg/mL
same,MIC,Staphylococcus aureus [21],8 µg/mL
same,MIC,Staphylococcus aureus [22],4 µg/mL
same,MIC,Staphylococcus aureus [23],2 µg/mL
same,MIC,Staphylococcus aureus [24],4 µg/mL
same,MIC,Staphylococcus aureus [25],8 µg/mL
same,MIC,Staphylococcus aureus [26],2 µg/mL
same,MIC,Staphylococcus aureus [27],8 µg/mL
same,MIC,Staphylococcus aureus [28],4 µg/mL
same,MIC,Staphylococcus aureus [29],0.25 µg/mL
same,MIC,Staphylococcus aureus [30],4 µg/mL
same,MIC,Staphylococcus aureus [31],16 µg/mL
same,MIC,Staphylococcus aureus [32],8 µg/mL
same,MIC,Staphylococcus aureus [33],32 µg/mL
same,MIC,Staphylococcus aureus [34],4 µg/mL
same,MIC,Staphylococcus aureus [35],16 µg/mL
same,MIC,Staphylococcus aureus [36],0.03 µg/mL
same,MIC,Staphylococcus aureus [37],2 µg/mL
same,MIC,Staphylococcus aureus [38],1 µg/mL
same,MIC,Staphylococcus aureus [39],16 µg/mL
same,MIC,Staphylococcus aureus [40],4 µg/mL
same,MIC,Staphylococcus aureus [41],4 µg/mL
same,MIC,Staphylococcus aureus [42],0.06 µg/mL
same,MIC,Staphylococcus aureus [43],8 µg/mL
same,MIC,Staphylococcus aureus [44],0.016 µg/mL
same,MIC,Staphylococcus aureus [45],2 µg/mL
same,MIC,Staphylococcus aureus [46],4 µg/mL
same,MIC,Staphylococcus aureus [47],8 µg/mL
same,MIC,Staphylococcus aureus [48],16 µg/mL
same,MIC,Staphylococcus aureus [49],4 µg/mL
same,MIC,Staphylococcus aureus [50],8 µg/mL
